Experimental data taken from article PMC9425443 (RSC Advances, 2022).
Where a name gives a salt, the structure may show the parent alone.

Legend:
[1] = biological target: T1, CYP142A1 C296S (Mycobacterium tuberculosis, UniProt P9WPL5, C296S); type: biochemical
[2] = biological target: T2, CYP142A1 C316S (Mycobacterium tuberculosis, UniProt P9WPL5, C316S); type: biochemical
[3] = biological target: T3, CYP142A1 C118S (Mycobacterium tuberculosis, UniProt P9WPL5, C118S); type: biochemical
[4] = biological target: T4, CYP142A1 C123S (Mycobacterium tuberculosis, UniProt P9WPL5, C123S); type: biochemical
[5] = biological target: T5, CYP142A1 C281S (Mycobacterium tuberculosis, UniProt P9WPL5, C281S); type: biochemical
[6] = biological target: T6, CYP142A1 C110S (Mycobacterium tuberculosis, UniProt P9WPL5, C110S); type: biochemical
[7] = biological target: T1, CYP142A1 C296S; conditions: pH 7.4
[8] = biological target: T5, CYP142A1 C281S; conditions: pH 7.4
[9] = biological target: T3, CYP142A1 C118S; conditions: pH 7.4
[10] = biological target: T2, CYP142A1 C316S; conditions: pH 7.4
[11] = biological target: T6, CYP142A1 C110S; conditions: pH 7.4
[12] = biological target: T4, CYP142A1 C123S; conditions: pH 7.4

Compound | kcat [1] [s⁻¹] | kcat [2] [s⁻¹] | kcat [3] [s⁻¹] | kcat [4] [s⁻¹] | kcat [5] [s⁻¹] | kcat [6] [s⁻¹] | Kd [7] [µM] | Kd [8] [µM] | Kd [9] [µM] | Kd [10] [µM] | Kd [11] [µM] | Kd [12] [µM]
CC(C)CCC[C@@H](C)[C@H]1CC[C@H]2[C@@H]3CCC4=CC(=O)CC[C@]4(C)[C@H]3CC[C@]12C [Cholest-4-en-3-one] | 0.0767 ± 0.00583 | 0.0783 ± 0.00617 | 0.0933 ± 0.00633 | 0.085 ± 0.00617 | 0.0917 ± 0.00617 | 0.11 ± 0.0113 | – | – | – | – | – | –
CC(C)CCC[C@@H](C)[C@H]1CC[C@H]2[C@@H]3CC=C4C[C@@H](OS(=O)(=O)O)CC[C@]4(C)[C@H]3CC[C@]12C [Cholesteryl sulfate] | – | – | – | – | – | – | 25 ± 9.6 | 37 ± 8.8 | 33 ± 4.3 | 26 ± 8 | 37 ± 8.7 | 35 ± 9.3
Cholesteryl propionate | – | – | – | – | – | – | 48 ± 5.9 | 47 ± 7.6 | 43 ± 10 | 46 ± 6.8 | 35 ± 4.9 | 23 ± 5
